SMILES strings stand for the structures.

Series [1] deals with Hepatitis B Virus (HBV). Nature of the series: Inhibitory effect against growth of hepatitis B virus (HBV-DNA synthesis in HB611 cells, Southern blotting). Format: cell-based. Conditions: read-out: 50% inhibition concentration against HBV-DNA synthesis; HB611 cells (recombinant human hepatoma cells producing HBV); test compound 0.005 to 100 μM from day 8; DNA collected day 17.

The subject of series [2] is HB611 cells. Nature of the series: Cytotoxicity to HB611 cells. Format: cell-based, human. The method, then: The inhibitory effect of the compound of the present invention against the growth of an HBV was measured by a known method (K. Ueda, et al., Virology, 169, 213-216 (1989)). 2×10^4 of HB611 cells (recombinant human hepatoma cells producing HBV) were cultured at 37° C. in Dulbecco ME medium containing 10% fetal bovine serum, streptomycin (100 μg/ml), penicillin (100IU/ml) and Genetisin (trade name, antibiotic by LifeTechnologies) (0.2 mg/ml). At the second day and the fifth day of culturing, the medium was replaced by a fresh medium, and then at the eighth day, the eleventh day and the fourteenth day of culturing, the medium was replaced with a medium containing 0.005 to 100 μM (final concentration) of the test compound, and at the seventeenth day of culturing, DNA of the cells were collected. […] Moreover, a concentration of the compounds required to kill 50% of HB611 cells was determined.
Each compound number in the table corresponds to the compound number in Table 1. For reference, the results of the evaluation of the compounds described in EP785208 are also shown.

With `Nc1nc(Sc2ccc(O)cc2)c2ncn(CCOCP(=O)(OCC(F)(F)F)OCC(F)(F)F)c2n1` [Compound No. 3, 2-amino-9-[2-(phosphonomethoxy)ethyl]-6-(4-hydroxyphenylthio)purine bis(2,2,2-trifluoroethyl) ester], the IC50 in series [1] was 50 nM. In addition, the “Cytotoxic concentration required to kill 50% of HB611 cells” value in series [2] was >1,000 μM.

Values taken from patent US6767900B2, “Phosphonate nucleotide compound” (Mitsubishi Pharma Corporation, priority 2000, dated 2004).
